Results: ChEMBL document CHEMBL3885881, “DrugMatrix”

Species on record: Rattus norvegicus
Experiment: DrugMatrix - Regimen: Daily Repeat
Type: toxicity, organism-based, Sprague-Dawley
Set-up: regimen Daily Repeat, gender Male, age 6-8 weeks
Settings: in vivo, po, 16 mg/kg, route oral GAVAGE, dose level Low, vehicle .5 % CMC; for ABSOLUTE BASOPHIL / ABSOLUTE EOSINOPHIL / ABSOLUTE LYMPHOCYTE / ABSOLUTE MONOCYTE / ABSOLUTE SEGMENTED NEUTROPHIL / BASOPHIL / EOSINOPHIL / ERYTHROCYTE COUNT / HEMATOCRIT / HEMOGLOBIN / LEUKOCYTE COUNT / LYMPHOCYTE / MEAN CORPUSCULAR HEMOGLOBIN / MEAN CORPUSCULAR HEMOGLOBIN CONCENTRATION / MEAN CORPUSCULAR VOLUME / MONOCYTE / NEUTROPHIL / NUCLEATED RED BLOOD CELLS / PLATELET COUNT: tissue Blood; for ALANINE AMINOTRANSFERASE / ALBUMIN / ASPARTATE AMINOTRANSFERASE / BLOOD UREA NITROGEN / CARBON DIOXIDE / CHLORIDE / CREATINE PHOSPHOKINASE / CREATININE / GLUCOSE / LACTATE DEHYDROGENASE / LIPASE / PHOSPHORUS / POTASSIUM / SODIUM / TOTAL BILIRUBIN / TOTAL PROTEIN: tissue Plasma

CC1=C(C(=O)O)N2C(=O)[C@@H](NC(=O)[C@H](N)c3ccccc3)[C@H]2SC1 [CEPHALEXIN ANHYDROUS]
ABSOLUTE BASOPHIL (72 h, time 3 day): 0 CELLS/uL | ABSOLUTE EOSINOPHIL (72 h, time 3 day): 0 CELLS/uL | ABSOLUTE LYMPHOCYTE (72 h, time 3 day): 17436 CELLS/uL | ABSOLUTE MONOCYTE (72 h, time 3 day): 124 CELLS/uL | ABSOLUTE SEGMENTED NEUTROPHIL (72 h, time 3 day): 706.67 CELLS/uL | BASOPHIL (72 h, time 3 day): 0% | EOSINOPHIL (72 h, time 3 day): 0% | ERYTHROCYTE COUNT (72 h, time 3 day): 5.81 x10E6/uL | HEMATOCRIT (72 h, time 3 day): 35.97% | HEMOGLOBIN (72 h, time 3 day): 13.93 G/DL | LEUKOCYTE COUNT (72 h, time 3 day): 18.27 x10E3/uL | LYMPHOCYTE (72 h, time 3 day): 95.33% | MEAN CORPUSCULAR HEMOGLOBIN (72 h, time 3 day): 24.03 pg | MEAN CORPUSCULAR HEMOGLOBIN CONCENTRATION (72 h, time 3 day): 38.8 G/DL | MEAN CORPUSCULAR VOLUME (72 h, time 3 day): 61.97 fL | MONOCYTE (72 h, time 3 day): 0.67% | NEUTROPHIL (72 h, time 3 day): 4% | NUCLEATED RED BLOOD CELLS (72 h, time 3 day): 0 /100WBC | PLATELET COUNT (72 h, time 3 day): 1279 x10E3/uL | ALANINE AMINOTRANSFERASE (72 h, time 3 day): 50.33 u/L | ALBUMIN (72 h, time 3 day): 4.13 G/DL | ASPARTATE AMINOTRANSFERASE (72 h, time 3 day): 86.67 u/L | BLOOD UREA NITROGEN (72 h, time 3 day): 14.33 mg/dL | CARBON DIOXIDE (72 h, time 3 day): 30 mmol/L | CHLORIDE (72 h, time 3 day): 101 MEQ/L | CREATINE PHOSPHOKINASE (72 h, time 3 day): 208 u/L | CREATININE (72 h, time 3 day): 0.23 mg/dL | GLUCOSE (72 h, time 3 day): 163.33 mg/dL | LACTATE DEHYDROGENASE (72 h, time 3 day): 208.33 u/L | LIPASE (72 h, time 3 day): 9 u/L | PHOSPHORUS (72 h, time 3 day): 13.27 mg/dL | POTASSIUM (72 h, time 3 day): 7.33 MEQ/L | SODIUM (72 h, time 3 day): 146.17 MEQ/L | TOTAL BILIRUBIN (72 h, time 3 day): 0.17 mg/dL | TOTAL PROTEIN (72 h, time 3 day): 5.9 G/DL | ABSOLUTE BASOPHIL (120 h, time 5 day): 0 CELLS/uL | ABSOLUTE EOSINOPHIL (120 h, time 5 day): 0 CELLS/uL | ABSOLUTE LYMPHOCYTE (120 h, time 5 day): 13406.33 CELLS/uL | ABSOLUTE MONOCYTE (120 h, time 5 day): 44 CELLS/uL | ABSOLUTE SEGMENTED NEUTROPHIL (120 h, time 5 day): 716.33 CELLS/uL | BASOPHIL (120 h, time 5 day): 0% | EOSINOPHIL (120 h, time 5 day): 0% | ERYTHROCYTE COUNT (120 h, time 5 day): 5.62 x10E6/uL | HEMATOCRIT (120 h, time 5 day): 33.87% | HEMOGLOBIN (120 h, time 5 day): 13.33 G/DL | LEUKOCYTE COUNT (120 h, time 5 day): 14.17 x10E3/uL | LYMPHOCYTE (120 h, time 5 day): 94.67% | MEAN CORPUSCULAR HEMOGLOBIN (120 h, time 5 day): 23.63 pg | MEAN CORPUSCULAR HEMOGLOBIN CONCENTRATION (120 h, time 5 day): 39.33 G/DL | MEAN CORPUSCULAR VOLUME (120 h, time 5 day): 60.17 fL | MONOCYTE (120 h, time 5 day): 0.33% | NEUTROPHIL (120 h, time 5 day): 5% | NUCLEATED RED BLOOD CELLS (120 h, time 5 day): 0 /100WBC | PLATELET COUNT (120 h, time 5 day): 900 x10E3/uL | ALANINE AMINOTRANSFERASE (120 h, time 5 day): 49 u/L | ALBUMIN (120 h, time 5 day): 4.2 G/DL | ASPARTATE AMINOTRANSFERASE (120 h, time 5 day): 98 u/L | BLOOD UREA NITROGEN (120 h, time 5 day): 14.67 mg/dL | CARBON DIOXIDE (120 h, time 5 day): 24 mmol/L | CHLORIDE (120 h, time 5 day): 103.33 MEQ/L | CREATINE PHOSPHOKINASE (120 h, time 5 day): 652.67 u/L | CREATININE (120 h, time 5 day): 0.25 mg/dL | GLUCOSE (120 h, time 5 day): 200.67 mg/dL | LACTATE DEHYDROGENASE (120 h, time 5 day): 425.67 u/L | LIPASE (120 h, time 5 day): 9 u/L | PHOSPHORUS (120 h, time 5 day): 13.2 mg/dL | POTASSIUM (120 h, time 5 day): 6.1 MEQ/L | SODIUM (120 h, time 5 day): 146.5 MEQ/L | TOTAL BILIRUBIN (120 h, time 5 day): 0.17 mg/dL | TOTAL PROTEIN (120 h, time 5 day): 6.13 G/DL
